Experiment [1] has as its system SARS-CoV-2. The experiment in a line: Inhibitory activity of cytopathic effect (CPE) in HEK293T/ACE2-TMPRSS2 cells. In kind it is cell-based. The following applies: Severe acute respiratory syndrome coronavirus 2, HEK-293T, 72 h. On the technique in general: Cytopathic effects are the visible damage that an infection or toxin causes in cultured cells.
Experiment [2] addresses SARS-CoV-2 3CL protease (Severe acute respiratory syndrome coronavirus 2, UniProt P0DTD1). In words: Inhibitory activity test against SARS-CoV-2 3CL proteases. Type of experiment: biochemical.
Where [3] appears, read: HEK293T/ACE2-TMPRSS2 cells, cultured 3 days, CellTiter-Glo 2.0 luminescence, read-out: EC50 (50% SARS-CoV-2 infected cell death inhibitory concentration).
The mark [4] stands for this setting: read-out: IC50 (50% SARS-CoV-2 3CL protease inhibitory concentration).
[5] abbreviates: 50% SARS-CoV-2 infected cell death inhibitory concentration, HEK293T/ACE2-TMPRSS2 cells, CellTiter-Glo 2.0 after 3 days culture, read-out: EC50.

Like-named read-outs stand apart in the source and are kept apart here. Bounds are passed on as bounds.

Regarding `COc1nc(N2[C@@H]3CC[C@H]2COC3)cc2c1c(=O)n(-c1cnc3cc(F)ccn13)c(=O)n2-c1ccc(F)c(Cl)c1` [Compound I-1001], in experiment [1] (read-out: EC50 (50% SARS-CoV-2 infected cell death inhibitory concentration)), the EC50 was under 100 nM. The compound further returned an IC50 in experiment [2] (IC50 (50% SARS-CoV-2 3CL protease inhibitory concentration)) of under 100 nM.
For `COc1nc(N2CCC2)cc2c1c(=O)n(-c1cnc3cc(F)ccn13)c(=O)n2-c1ccc(F)c(Cl)c1` [Compound I-1002], the EC50 in experiment [1] (setting [3]) was under 100 nM. Besides, the IC50 in experiment [2] (setting [4]) is under 100 nM.
Regarding `COc1nc(N2CCC(F)(F)C2)cc2c1c(=O)n(-c1cc(C)cnn1)c(=O)n2-c1ccc(F)c(Cl)c1` [Compound I-1003], the EC50 in experiment [1] (setting [3]) is under 100 nM. The IC50 in experiment [2] (setting [4]) is under 100 nM.
With `COc1nc(N2CCC(O)(CF)C2)cc2c1c(=O)n(-c1cncc(Cl)c1)c(=O)n2-c1ccc(F)c(Cl)c1` (centres unmarked) [Compound I-1004], the EC50 in experiment [1] (setting [3]) is under 100 nM. Moreover, the IC50 in experiment [2] (setting [4]) was under 100 nM.
On to `[2H]C([2H])([2H])O[C@@H]1CCN(c2cc3c(c(OC)n2)c(=O)n(-c2cnc4cc(F)ccn24)c(=O)n3-c2ccc(F)c(F)c2)C1` [Compound I-1005], for which, in experiment [1] (setting [5]), the EC50 came out at 8.65 nM. Besides, the IC50 in experiment [2] (setting [4]) was 8.9 nM.
`COc1nc(N(C)CC(F)(F)F)cc2c1c(=O)n(-c1cnc3cc(F)ccn13)c(=O)n2-c1ccc(F)c(Cl)c1` [Compound I-1006]: the EC50 in experiment [1] (setting [3]) is under 100 nM. Besides, the IC50 in experiment [2] (setting [4]) was under 100 nM.
As for `COc1nc(N2CCC(S(C)(=O)=O)C2)cc2c1c(=O)n(-c1cnc3cc(F)ccn13)c(=O)n2-c1ccc(F)c(Cl)c1` (centres unmarked) [Compound I-1007], the EC50 in experiment [1] (setting [3]) was in the range of 100 to 1000 nM. Moreover, the IC50 in experiment [2] (setting [4]) was under 100 nM.
For `COC[C@@H]1CCN(c2cc3c(c(OC)n2)c(=O)n(-c2cncc(Cl)c2)c(=O)n3-c2ccc(F)c(Cl)c2)C1` [Compound I-1008], in that order: under 100 nM and under 100 nM.
Take `COc1nc(N2CCC(F)(F)C2)cc2c1c(=O)n(-c1cnc3cc(F)c(F)cn13)c(=O)n2-c1ccc(F)c(Cl)c1` [Compound I-1009]: the EC50 in experiment [1] (setting [3]) was under 100 nM. The IC50 in experiment [2] (setting [4]) was under 100 nM.
Regarding `COc1nc(N2CCC(C)(O)C2)cc2c1c(=O)n(-c1cncc(Cl)c1)c(=O)n2-c1ccc(F)c(Cl)c1` (centres unmarked) [Compound I-1010], the EC50 in experiment [1] (setting [3]) is under 100 nM. The IC50 in experiment [2] (setting [4]) was under 100 nM.
With `[2H]C([2H])([2H])O[C@@H]1CCN(c2cc3c(c(OC)n2)c(=O)n(-c2cnc4cc(F)ccn24)c(=O)n3-c2ccc(F)c(C(F)(F)F)c2)C1` [Compound I-1011], in experiment [1] (setting [3]), the EC50 is under 100 nM. Further, the IC50 in experiment [2] (setting [4]) was under 100 nM.
As to `[2H]C([2H])([2H])O[C@@H]1CCN(c2cc3c(c(OC)n2)c(=O)n(-c2cncc(OCF)c2)c(=O)n3-c2ccc(F)c(F)c2)C1` [Compound I-1012], the EC50 in experiment [1] (setting [3]) is under 100 nM. The IC50 in experiment [2] (setting [4]) is under 100 nM.
Regarding `COc1nc(N2CCOCC2)cc2c1c(=O)n(-c1cncc(Cl)c1)c(=O)n2-c1ccc(F)c(Cl)c1` [Compound I-1013], the EC50 in experiment [1] (setting [3]) is under 100 nM. Moreover, the IC50 in experiment [2] (setting [4]) is under 100 nM.
Turning to `COc1nc(N2CCC(F)(F)C2)cc2c1c(=O)n(-c1cnc3cc(F)ccn13)c(=O)n2-c1ccc(F)c(C(F)F)c1` [Compound I-1015], in experiment [1] (setting [3]), the EC50 is under 100 nM. The IC50 in experiment [2] (setting [4]) was under 100 nM.
For the compound `COc1nc(C2=CCOCC2)cc2c1c(=O)n(-c1cnc3cc(F)ccn13)c(=O)n2-c1ccc(F)c(Cl)c1` [Compound I-1016], in experiment [1] (setting [3]), the EC50 was under 100 nM. In experiment [2] (setting [4]), the IC50 is under 100 nM.
`COc1nc(N2CC(C#N)C2)cc2c1c(=O)n(-c1cnc3cc(F)ccn13)c(=O)n2-c1ccc(F)c(Cl)c1` [Compound I-1017]: the EC50 in experiment [1] (setting [3]) is under 100 nM. The IC50 in experiment [2] (setting [4]) was under 100 nM.
Consider `COc1nc(N2CCC(F)(F)C2)cc2c1c(=O)n(-c1cncc(C(F)F)c1)c(=O)n2-c1ccc(F)c(Cl)c1` [Compound I-1018], for which, in experiment [1] (setting [3]), the EC50 was under 100 nM. In experiment [2] (setting [4]), the IC50 is under 100 nM.
Turning to `C=C(C)c1cc2c(c(OC)n1)c(=O)n(-c1cnc3cc(F)ccn13)c(=O)n2-c1ccc(F)c(Cl)c1` [Compound I-1019], the EC50 in experiment [1] (setting [5]) came out at 570 nM. In experiment [2] (setting [4]), the IC50 amounted to 11 nM.
As for `COc1nc(N2C[C@@H](F)[C@@H](F)C2)cc2c1c(=O)n(-c1cnc3cc(F)ccn13)c(=O)n2-c1ccc(F)c(F)c1` [Compound I-1020], in experiment [1] (setting [3]), the EC50 was under 100 nM. Further, the IC50 in experiment [2] (setting [4]) is under 100 nM.
In the case of `COc1nc(C2CCOCC2)cc2c1c(=O)n(-c1cnc3cc(F)ccn13)c(=O)n2-c1ccc(F)c(Cl)c1` [Compound I-1021], the EC50 in experiment [1] (setting [5]) stood at 16.1 nM. Moreover, the IC50 in experiment [2] (setting [4]) was determined as 12 nM.
Consider `COc1nc(N2CCC(N(C)C)C2)cc2c1c(=O)n(-c1cncc(Cl)c1)c(=O)n2-c1ccc(F)c(Cl)c1` (centres unmarked) [Compound I-1022], for which, in experiment [1] (setting [3]), the EC50 was under 100 nM. Moreover, the IC50 in experiment [2] (setting [4]) is under 100 nM.
Turning to `CCc1nc(N2CCC(F)(F)C2)cc2c1c(=O)n(-c1cncc(Cl)c1)c(=O)n2-c1ccc(F)c(F)c1` [Compound I-1023], the EC50 in experiment [1] (setting [3]) was under 100 nM. Further, the IC50 in experiment [2] (setting [4]) is under 100 nM.

Values taken from patent US20240400560A1, “BICYCLIC HETEROCYCLIC DERIVATIVE HAVING VIRAL GROWTH INHIBITORY ACTIVITY AND PHARMACEUTICAL COMPOSITION CONTAINING SAME” (Shionogi & Co., Ltd., priority 2021, published 2024).
